This test deals with T1, CCR2 (Homo sapiens, UniProt P41597).
T1 sequence (P41597 1-360 isoform P41597-2): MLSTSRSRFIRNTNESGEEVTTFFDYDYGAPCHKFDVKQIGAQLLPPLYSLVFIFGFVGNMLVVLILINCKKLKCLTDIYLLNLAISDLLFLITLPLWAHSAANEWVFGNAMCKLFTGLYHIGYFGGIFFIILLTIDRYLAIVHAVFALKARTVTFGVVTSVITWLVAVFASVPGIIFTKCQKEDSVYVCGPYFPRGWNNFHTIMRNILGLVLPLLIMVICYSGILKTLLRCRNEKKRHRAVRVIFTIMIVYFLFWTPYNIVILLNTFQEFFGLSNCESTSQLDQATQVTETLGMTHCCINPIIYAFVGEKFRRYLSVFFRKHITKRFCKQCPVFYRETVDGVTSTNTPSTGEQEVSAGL
Take `O=C(O)C(C1CCN(C(=O)/C=C/c2ccc(Cl)c(Cl)c2)CC1)N1CCC(c2ccc(Cl)cc2)CC1` (centres unmarked) [Cpd 1, [4-(4-chloro-phenyl)-piperidin-1-yl]-{1-[(2E)-3-(3,4-dichloro-phenyl)-acryloyl]-piperidin-4-yl}-acetic acid]: inhibition was half-maximal at 0.253 µM (IC50). For `COC(=O)C(C1CCN(C(=O)/C=C/c2cc(F)cc(F)c2)CC1)N1CCC(c2ccc(OC)cc2)CC1` (centres unmarked) [Cpd 3, {1-[(2E)-3-(3,5-difluoro-phenyl)-acryloyl]-piperidin-4-yl}-[4-(4-methoxy-phenyl)-piperidin-1-yl]-acetic acid methyl ester] the value was 3.8 µM; for `O=C(O)C(C1CCN(C(=O)/C=C/c2cc(F)c(F)c(F)c2)CC1)N1CCC(c2ccc(Cl)cc2)CC1` (centres unmarked) [Cpd 4, [4-(4-chloro-phenyl)-piperidin-1-yl]-{1-[(2E)-3-(3,4,5-trifluoro-phenyl)-acryloyl]-piperidin-4-yl}-acetic acid], 0.37 µM. Turning to `COc1ccc(C2CCN(C(C(=O)O)C3CCN(C(=O)/C=C/c4cc(F)c(F)c(F)c4)CC3)CC2)cc1` (centres unmarked) [Cpd 5, [4-(4-methoxy-phenyl)-piperidin-1-yl]-{1-[(2E)-3-(3,4,5-trifluoro-phenyl)-acryloyl]-piperidin-4-yl}-acetic acid], the half-maximal inhibitory concentration (IC50) was 0.84 µM.

Turning to `O=C(O)C(C1CCN(C(=O)/C=C/c2cc(F)c(F)c(F)c2)CC1)N1CCC(n2ccc3ccccc32)CC1` (centres unmarked) [Cpd 10, (4-indol-1-yl-piperidin-1-yl)-{1-[(2E)-3-(3,4,5-trifluoro-phenyl)-acryloyl]-piperidin-4-yl}-acetic acid], the IC50 was determined as 8.6 µM. For `O=C(O)C(C1CCN(C(=O)/C=C/c2cc(F)cc(F)c2)CC1)N1CCC(Cc2c[nH]c3ccccc23)CC1` (centres unmarked) [Cpd 11, {1-[(2E)-3-(3,5-difluoro-phenyl)-acryloyl]-piperidin-4-yl}-[4-(1H-indol-3-ylmethyl)-piperidin-1-yl]-acetic acid] the value was 2.17 µM; for `O=C(O)C(C1CCN(C(=O)/C=C/c2cc(F)c(F)c(F)c2)CC1)N1CCC(Cc2c[nH]c3ccccc23)CC1` (centres unmarked) [Cpd 12, [4-(1H-indol-3-ylmethyl)-piperidin-1-yl]-{1-[(2E)-3-(3,4,5-trifluoro-phenyl)-acryloyl]-piperidin-4-yl}-acetic acid], 0.41 µM. For `O=C(O)C(C1CCN(C(=S)Nc2ccccc2)CC1)N1CCC(c2c[nH]c3ccccc23)CC1` (centres unmarked) [Cpd 43, [4-(1H-indol-3-yl)-piperidin-1-yl]-(1-phenylthiocarbamoyl-piperidin-4-yl)-acetic acid] the value was 1.1 µM. For `O=C(O)C(C1CCN(C(=S)Nc2ccc(F)cc2F)CC1)N1CCC(c2c[nH]c3ccccc23)CC1` (centres unmarked) [Cpd 44, [1-(2,4-difluoro-phenylthiocarbamoyl)-piperidin-4-yl]-[4-(1H-indol-3-yl)-piperidin-1-yl]-acetic acid] the value was 2.7 µM. On to `N=C(NC(=O)c1ccc(Cl)c(Cl)c1)N1CCC(C(C(=O)O)N2CCC(c3c[nH]c4ccccc34)CC2)CC1` (centres unmarked) [Cpd 50, {1-[(3,4-dichloro-benzoylamino)-imino-methyl]-piperidin-4-yl}-[4-(1H-indol-3-yl)-piperidin-1-yl]-acetic acid], for which the IC50 turned out to be 0.03 µM. For the molecule `N=C(NC(=O)c1cc(F)cc(F)c1)N1CCC(C(C(=O)O)N2CCC(c3c[nH]c4ccccc34)CC2)CC1` (centres unmarked) [Cpd 51, {1-[(3,5-difluoro-benzoylamino)-imino-methyl]-piperidin-4-yl}-[4-(1H-indol-3-yl)-piperidin-1-yl]-acetic acid], the IC50 was 0.3 µM. For `N=C(NC(=O)c1cc(F)c(F)c(F)c1)N1CCC(C(C(=O)O)N2CCC(c3c[nH]c4ccccc34)CC2)CC1` (centres unmarked) [Cpd 52, {1-[imino-(3,4,5-trifluoro-benzoylamino)-methyl]-piperidin-4-yl}-[4-(1H-indol-3-yl)-piperidin-1-yl]-acetic acid] the value was 0.03 µM.

`N=C(NC(=O)c1cccc(F)c1)N1CCC(C(C(=O)O)N2CCC(c3c[nH]c4ccccc34)CC2)CC1` (centres unmarked) [Cpd 54, {1-[(3-fluoro-benzoylamino)-imino-methyl]-piperidin-4-yl}-[4-(1H-indol-3-yl)-piperidin-1-yl]-acetic acid]: 1.4 µM corresponded to half-maximal inhibition (IC50). In turn, `O=C(O)C(C1CCN(C(=S)Nc2cc(F)cc(F)c2)CC1)N1CCC(c2c[nH]c3ccccc23)CC1` (centres unmarked) [Cpd 55, [1-(3,5-difluoro-phenylthiocarbamoyl)-piperidin-4-yl]-[4-(1H-indol-3-yl)-piperidin-1-yl]-acetic acid] had an IC50 of 0.115 µM.

Turning to `O=C(O)C(C1CCN(C(=S)Nc2cccc(Br)c2)CC1)N1CCC(c2c[nH]c3ccccc23)CC1` (centres unmarked) [Cpd 56, [1-(3-bromo-phenylthiocarbamoyl)-piperidin-4-yl]-[4-(1H-indol-3-yl)-piperidin-1-yl]-acetic acid], the IC50 came out at 0.06 µM. The figure for `COc1ccc(/C=C/C(=O)N2CCC(C(C(=O)O)N3CCC(c4c[nH]c5ccccc45)CC3)CC2)cc1OC` (centres unmarked) [Cpd 63, {1-[(2E)-3-(3,4-dimethoxy-phenyl)-acryloyl]-piperidin-4-yl}-[4-(1H-indol-3-yl)-piperidin-1-yl]-acetic acid] is 1.61 µM; for `O=C(O)C(C1CCN(C(=S)Nc2ccc(Cl)c(Cl)c2)CC1)N1CCC(c2c[nH]c3ccccc23)CC1` (centres unmarked) [Cpd 64, [1-(3,4-dichloro-phenylthiocarbamoyl)-piperidin-4-yl]-[4-(1H-indol-3-yl)-piperidin-1-yl]-acetic acid] it is 0.02 µM. As to `COc1ccc(NC(=O)N2CCC(C(C(=O)O)N3CCC(c4c[nH]c5ccccc45)CC3)CC2)cc1OC` (centres unmarked) [Cpd 66, [1-(3,4-dimethoxy-phenylcarbamoyl)-piperidin-4-yl]-[4-(1H-indol-3-yl)-piperidin-1-yl]-acetic acid], inhibition was half-maximal at 17.7 µM (IC50). The figure for `COc1ccc(NC(=O)N2CCC(C(C(=O)O)N3CCC(c4c[nH]c5ccccc45)CC3)CC2)cc1Cl` (centres unmarked) [Cpd 67, [1-(3-chloro-4-methoxy-phenylcarbamoyl)-piperidin-4-yl]-[4-(1H-indol-3-yl)-piperidin-1-yl]-acetic acid] is 0.845 µM; for `COC(=O)c1ccc(NC(=O)N2CCC(C(C(=O)O)N3CCC(c4c[nH]c5ccccc45)CC3)CC2)cc1` (centres unmarked) [Cpd 68, 4-[(4-{carboxy-[4-(1H-indol-3-yl)-piperidin-1-yl]-methyl}-piperidine-1-carbonyl)-amino]-benzoic acid methyl ester] it is 3.55 µM.

As for `COc1ccc(NC(=O)N2CCC(C(C(=O)O)N3CCC(c4c[nH]c5ccccc45)CC3)CC2)cc1` (centres unmarked) [Cpd 69, [4-(1H-indol-3-yl)-piperidin-1-yl]-[1-(4-methoxy-phenylcarbamoyl)-piperidin-4-yl]-acetic acid], the midpoint of inhibition, the IC50, lay at 14.2 µM. The molecule `N=C(NC(=O)c1cccc(C(F)(F)F)c1)N1CCC(C(C(=O)O)N2CCC(c3c[nH]c4ccccc34)CC2)CC1` (centres unmarked) [Cpd 73, {1-[imino-(3-trifluoromethyl-benzoylamino)-methyl]-piperidin-4-yl}-[4-(1H-indol-3-yl)-piperidin-1-yl]-acetic acid] registered a half-maximal inhibitory concentration (IC50) of 0.15 µM. For the molecule `Cc1ccc(NC(=S)N2CCC(C(C(=O)O)N3CCC(c4c[nH]c5ccccc45)CC3)CC2)cc1` (centres unmarked) [Cpd 78, [4-(1H-indol-3-yl)-piperidin-1-yl]-(1-p-tolylthiocarbamoyl-piperidin-4-yl)-acetic acid], the IC50 was determined as 0.14 µM.

The values above are taken from patent US20060069123A1, “Substituted dipiperidine CCR2 antagonists” (priority 2004, published 2006).
